Source: article PMC3197222 (Journal of the American Chemical Society, 2009)
“Also recorded” adds a separate entry of the source.

What was measured:
DNase [1] = assay: Phage-based ELISA of phage-displayed DNase ligands; type: binding; settings: for binding to DNase, unwrapped phage-displayed ligand: absence of 1-ext wrapper, versus M13-KO7 phage; for binding affinity and specificity for DNase, phage-displayed: phage-based ELISA (Figure 5); for binding to DNase, wrapped phage-displayed ligand: wrapped with 1-ext (2.5 µM), versus M13-KO7 phage control
DNase [2] = settings: selected with Lys18-wrapped phage library; ref [15]; cited from earlier work
DNase [3] = assay: SPR imaging of phage-displayed DNase-1 adsorption; type: binding; settings: phage-displayed DNase-1, 2.5 nM phage wrapped in 2.5 µM polymer 1 in PBS (Figure S2)

Sequence | binding to DNase, unwrapped phage-displayed ligand (DNase [1]) | binding affinity and specificity for DNase, phage-displayed (DNase [1]) | binding to DNase, wrapped phage-displayed ligand (DNase [1]) | DNase ligand (previous report) (DNase [2]) | SPR imaging binding to DNase (DNase [3])
EEWYCLRQGTFETLFF [DNase-2] | stronger binding to DNase than the negative control M13-KO7 phage | moderate to high affinity binding and specificity for DNase | bound with higher affinity to DNase than the M13-KO7 phage control, with DNase-2 having much greater apparent affinity; also recorded: strong binding to DNase was retained |  | 
EEWYCLRQGTFETLYCFW [DNase-L] |  |  |  | DNase ligand | 
RWCLSELSG [DNase-1] | stronger binding to DNase than the negative control M13-KO7 phage | moderate to high affinity binding and specificity for DNase | bound with higher affinity to DNase than the M13-KO7 phage control |  | binds well to the target DNase
